Measurements taken from patent US12391768B2, “Antibodies to ticagrelor and methods of use” (MEDIMMUNE LIMITED, priority 2014, dated 2025).
Like-named read-outs stand apart in the source and are kept apart here.

Legend:
[1] = human, in vivo; cited from earlier work
TICA0162 Fab = assay: HTRF competition binding selectivity assay, TICA0162 His-Fab; design: species or system human; conditions: Table 7, DMSO normalised; 5 nM biotinylated ticagrelor, 1 nM His Fab; read-out: IC50 (uM) for inhibition of biotinylated ticagrelor binding to TICA0162 Fab
Protocol: (§1) Total Binding control wells were set up which contained all of the assay components above except that 5 ul assay buffer was added in place of the test selectivity compound addition. Negative Binding control wells were set up which contained all of the assay components included in the Total Binding control wells except that 5ul assay buffer was added in place of the His-Fab addition. Test compound serial titrations were either ½ or ⅓ depending on the particular experiment and top final assay compound concentrations were optimized on a compound specific basis. The concentration of biotinylated ticagrelor and His-Fab was optimized on a Fab specific basis in separate experiments. For the four Fabs investigated at the end of the lead isolation phase (TICA0010, TICA0049, TICA0053 and TICA0072) the final assay reagent concentrations used are set out in Table 1 below:
For the two Fabs investigated at the end of the lead optimization phase (TICA0162 and TICA0212) the final assay reagent concentrations used were 5nM biotinylated ticagrelor and 1 nM His Fab in both cases. […] In order to enable subsequent normalization of data to correct for any such vehicle related effects parallel titrations of DMSO alone were included in most experiments in which the final assay DMSO concentrations mirrored those of the test compound serial dilutions. At the end of the set up procedure that assay was incubated for 3hrs at RT before being read on an Envision plate reader using a standard read protocol. […]
(§2) In those experiments where DMSO normalization was applied DMSO normalised % Specific Binding was calculated essentially according to the equation above except that in this case Total Binding Delta F was taken from wells containing all of the components in the Total Binding control wells as well as DMSO at a concentration equivalent to that in the relevant sample well.

TICA0010 Fab = assay: HTRF competition binding selectivity assay, TICA0010 His-Fab; design: species or system human; conditions: first series (Table 2), not DMSO normalised
Protocol: as §1
(§3) For the two Fabs investigated at the end of the lead optimization phase (TICA0162 and TICA0212) the final assay reagent concentrations used were 5nM biotinylated ticagrelor and 1 nM His Fab in both cases. […] In order to enable subsequent normalization of data to correct for any such vehicle related effects parallel titrations of DMSO alone were included in most experiments in which the final assay DMSO concentrations mirrored those of the test compound serial dilutions. At the end of the set up procedure that assay was incubated for 3hrs at RT before being read on an Envision plate reader using a standard read protocol.
(§4) The negative ratio value used in the calculation of % Delta F was derived from the Negative Binding control wells. % Delta F values were then used to calculate % Specific Binding values according to the equation below: Specific Binding (%)={(Sample Delta F−Negative Binding Delta F)/(Total Binding Delta F−Negative Binding Delta F)}×100
(§5) For standard calculations of % Specific Binding Total Binding Delta F was taken from Total Binding control wells which contained all of the aforementioned components of the assay but without inclusion of any competing test compound.
as §2

TICA0049 Fab = assay: HTRF competition binding selectivity assay, TICA0049 His-Fab; design: species or system human
Protocol: as §1, §3, §4, §5, §2
(§6) In a second series of experiments further selectivity data was generated for TICA0049 and TICA0072 Fabs in which a subset of four of the twelve compounds listed in FIG. 4 were retested along with ticagrelor, TAM and TIM and several adenosine related compounds. Here, in a refinement to the earlier investigations in Table 2, experiments were designed in order to enable normalisation of percent specific binding values to correct for any non-specific vehicle related effects due to DMSO. Example plotted data from this second series of experiments is shown in FIG. 5A-F along with tabulated IC50 values in Table 3.

TICA0053 Fab = assay: HTRF competition binding selectivity assay, TICA0053 His-Fab; design: species or system human; conditions: first series (Table 2), not DMSO normalised
Protocol: as §1, §3, §4, §5, §2

TICA0072 Fab = assay: HTRF competition binding selectivity assay, TICA0072 His-Fab; design: species or system human; conditions: second series (Table 3), DMSO normalised
Protocol: as §1, §3, §4, §5, §2, §6

[2] = biological target: TICA0159 IgG binding to biotinylated ticagrelor; assay: Second generation HTRF epitope competition assay; conditions: for IC50: Fab, 16 nM TICA0159 IgG, 1 nM biotinylated ticagrelor; for Fold Improved: IC50 relative to parent TICA0072 Fab
Protocol: Purified parent TICA0072 (scFv or Fab) was used as a benchmark in all experiments such that improvements in IC50 measured with optimized variants (scFv or Fab) could be expressed as fold improvements over parent TICA0072. Total Binding Control Wells contained all assay components except that 5 ul assay buffer was added in place of the purified scFv or Fab sample. Negative Binding control wells contained all of the components of the Total Binding control wells except that 5 ul of assay buffer was added in place of the TICA0072 IgG.
In both single point HTS and multipoint IC50 profiling versions of the assay. plates were incubated for 3 hrs at RT before being read on an Envision plate reader using a standard HTRF read protocol in which samples are excited at 337 nm and time resolved fluorescence emission is measured at both 620 nm and 665 nM.
Raw 665 nm and 620 nm counts were used to calculate Delta F (%) and % Specific Binding according to the equations described earlier in Assays 1 and 4, respectively. For multipoint secondary profiling experiments IC50 values were determined using Graphpad Prism software using sigmoidal dose response (variable slope) curve fitting (4 parameter logistic equation).
This assay was used only in multipoint IC50 profiling format (as opposed to HTS format) and was performed essentially identically to the method given in Assay 5 (above) for multipoint IC50 profiling of purified Fab variants in the parent TICA0072 IgG based epitope competition assay. The only difference being that TICA0159 IgG was used in place of TICA0072 IgG at the appropriate point in the assay set up but at the same 16nM final assay concentration. In all other respects this assay was performed exactly as described above in the multipoint secondary profiling version for purified Fab.

[3] = Equilibrium affinity by KinExA3200, ticagrelor; type: binding; conditions: modifications in VL CDR3 or VH CDR3 only
Protocol: The affinity of anti-ticagrelor/TAM Fabs generated in Example 5 was determined using the KinExA3200. For the KinExA affinity measurement, beads (600 mg Azlactone beads) were first prepared by reacting them overnight with 1 mg streptavidin in 50 mM NaHCO3. Following blocking with 2 changes of Tris buffer (1M Tris pH 8.7, 10 mg/mL BSA) the streptavidin coated beads were resuspended in a total volume of 8 mL. Beads (1.33 mL, equivalent to 100 mg original dry Azlactone beads) were washed completely with PBS, then allowed to bind to approximately 2.5 μg biotin-ticagrelor in 1 mL PBS for 10 minutes with occasional agitation. […]
All assays were performed at room temperature. […] Bound antibody was then detected using DyLight649 labelled mouse anti-human Heavy and Light chain antibody. Sample volume (300-1300 μL) and injection time (90-120 s) varied with concentration, and 2 -3 reads were varied out per sample. The data were analysed using the KinExA n-Curve Analysis software. Using the Constant Partner analysis the equilibrium KD for the anti-ticagrelor Fab antibodies was determined.
As in the prior Example, Fabs were allowed to equilibrate at room temperature in the presence of either unmodified ticagrelor or TAM at concentrations from 20-fold excess. […] Bound antibody was then detected using a DyLight649 labelled mouse anti-human Heavy and Light chain detection antibody. […]

[4] = first series (Table 2), not DMSO normalised
[5] = first series (Table 2), not DMSO normalised, read-out: IC50 (uM) for inhibition of biotinylated ticagrelor binding to TICA0049 his-Fab
[6] = second series (Table 3), DMSO normalised
[7] = second series (Table 3), DMSO normalised, read-out: IC50 in competition binding selectivity studies, TICA0049

In the case of `CCCSc1nc(N)c2nnn(C3CC(OCCO)C(O)C3O)c2n1` (centres unmarked) [TIM], the detectability in circulation [1] is listed as “undetectable after 8 hours” and the “fraction of the parent ticagrelor” value [1] is listed as under 10%.

`NS(=O)(=O)c1cc2c(cc1Cl)NC(C1CC3C=CC1C3)NS2(=O)=O` (centres unmarked) [Cyclothiazide] gave an IC50 (TICA0162 Fab) of over 1000 µM.

In the case of `CSCCNc1nc(SCCC(F)(F)F)nc2c1ncn2[C@@H]1O[C@H](COP(=O)(O)OP(=O)(O)C(Cl)(Cl)P(=O)(O)O)[C@@H](O)[C@H]1O` [Cangrelor], the “IC50 (uM) for inhibition of biotinylated ticagrelor binding to TICA00l0 his-Fab” value (TICA0010 Fab) is reported as “competitive inhibition”, the IC50 (TICA0010 Fab; read-out: IC50 (uM) for inhibition of biotinylated ticagrelor binding to TICA00l0 his-Fab) is reported as 102 µM and the “IC50 (uM) for inhibition of biotinylated ticagrelor binding to TICA0049 his-Fab” value (TICA0049 Fab; [4]) is reported as “competitive inhibition”. The IC50 (TICA0049 Fab; [5]) was 208 µM, the “IC50 in competition binding selectivity studies, TICA0049” value (TICA0049 Fab; [6]) was “significant inhibition” and the IC50 (TICA0049 Fab; [7]) was 188 µM. For the same molecule, the “IC50 (uM) for inhibition of biotinylated ticagrelor binding to TICA0053 his-Fab” value (TICA0053 Fab) was “competitive inhibition” and the IC50 (TICA0053 Fab; read-out: IC50 (uM) for inhibition of biotinylated ticagrelor binding to TICA0053 his-Fab) was 17.5 µM.

For `Nc1ncnc2c1ncn2[C@@H]1O[C@H](COP(=O)(O)OP(=O)(O)O)[C@@H](O)[C@H]1O` [ADP, adenosine diphosphate], the “IC50 in competition binding selectivity studies, TICA0049” value (TICA0049 Fab; [6]) was “trace of inhibition” and the “IC50 in competition binding selectivity studies, TICA0072” value (TICA0072 Fab) was “trace of inhibition”.

With `CCCC(=O)Nc1ncnc2c1ncn2[C@@H]1O[C@@H]2COP(=O)(O)O[C@H]2[C@H]1OC(=O)CCC` [Bucladesine] the “IC50 in competition binding selectivity studies, TICA0049” value (TICA0049 Fab; [6]) was “weak inhibition” and the IC50 (TICA0049 Fab; [7]) was 865 µM.

For `Nc1ncnc2c1ncn2[C@@H]1O[C@H](CO)[C@@H](O)[C@H]1O` [Adenosine], the “IC50 in competition binding selectivity studies, TICA0049” value (TICA0049 Fab; [6]) was “trace of inhibition” and the “IC50 in competition binding selectivity studies, TICA0072” value (TICA0072 Fab) was “trace of inhibition”.

In the case of `CC(=O)NC[C@H]1CN(c2ccc(N3CCOCC3)c(F)c2)C(=O)O1` [Linezolid], the “IC50 (uM) for inhibition of biotinylated ticagrelor binding to TICA0049 his-Fab” value (TICA0049 Fab; [4]) is reported as “partial competitive inhibition”, the IC50 (TICA0049 Fab; [5]) is reported as 467 µM and the “IC50 in competition binding selectivity studies, TICA0049” value (TICA0049 Fab; [6]) is reported as “weak inhibition”. It also gave an IC50 (TICA0049 Fab; [7]) of 902 µM.

In the case of `Nc1ncnc2c1ncn2[C@@H]1O[C@H](COP(=O)(O)OP(=O)(O)OP(=O)(O)O)[C@@H](O)[C@H]1O` [ATP, adenosine triphosphate], the “IC50 in competition binding selectivity studies, TICA0049” value (TICA0049 Fab; [6]) is reported as “trace of inhibition” and the “IC50 in competition binding selectivity studies, TICA0072” value (TICA0072 Fab) is reported as “trace of inhibition”.

B1: TICA0152: VL CDR3 variant of TICA0072; VH SEQ ID NO:62, VL SEQ ID NO:67 (antibody, listed as Homo sapiens, V domains shown)
VH: QVQLQESGAEVKKPGSSVRVSCKASGGTFDSYSIHWVRQAPGQGLEWMGGIIPAFGTLSSAQDFQARVTISADKSTSTAYMELSGLRSEDTAVYYCARGSHLYDFWSASHPPNDALAIWGQGTLVTVSS
VL: QSVVTQPPSVSAAPGQKVTISCSGSNSDIGNNYVSWYQQLPGTAPKLLIYDNNKRPSGIPDRFSGSKSGTSATLAITGLQAGDEADYYCGTWLYDRAVGLFGGGTKVTVL
For B1, the IC50 [2] was 0.0735 µM, the “Fold Improved” value [2] was 23.3 and the “fold improvement over TICA0072” value [3] was 200 fold.

B2: TICA0162: VH CDR3 variant of TICA0072; VH SEQ ID NO:52, VL SEQ ID NO:57 (antibody, listed as Homo sapiens, V domains shown)
VH: QVQLQESGAEVKKPGSSVRVSCKASGGTFDSYSIHWVRQAPGQGLEWMGGIIPAFGTLSSAQDFQARVTISADKSTSTAYMELSGLRSEDTAVYYCARGSFDYYFWSASHPPNDALAIWGQGTLVTVSS
VL: QSVVTQPPSVSAAPGQKVTISCSGSNSDIGNNYVSWYQQLPGTAPKLLIYDNNKRPSGIPDRFSGSKSGTSATLAITGLQAGDEADYYCGTWDISLSAGLFGGGTKVTVL
In the case of B2, the IC50 [2] is reported as 0.0163 µM, the “Fold Improved” value [2] is reported as 105.2 and the “fold improvement over TICA0072” value [3] is reported as 50 fold.
